This note sets out measurements from PubChem BioAssay (NCI).

Values joined by “and” are separate entries in the source; they are usually repeats but may differ in a detail not shown here. Equal entries are not always repeated.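 Dose response: 5 concentrations. Exposure: 48 h. Format: 96-well plates. Endpoint: linear interpolation; highest concentration if not reached. At the GI50, growth is halved. TGI denotes the concentration required for complete inhibition of growth.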 Where only a bound is given, the exact number is not on record here.

Test systems include SF-295 CNS; TK-10 renal; SN12C renal; UACC-62 melanoma; DU-145 prostate; SK-MEL-28 melanoma; OVCAR-4 ovarian; SW-620 colon; MALME-3M melanoma; SK-MEL-5 melanoma.
Common to all, as to assay: NCI tumour cell line growth inhibition, 48 h

For `CCCCCCCC/C=C/CCCCCCCCC1=NCCN1CCO`, the GI50 in the test with SF-295 CNS was 1.93 µM; with TK-10 renal, 12.6 µM; with SN12C renal, 4.19 µM; in the test on UACC-62 melanoma it was 3.05 µM; in the test on DU-145 prostate it was 7.28 µM; in the test with SK-MEL-28 melanoma it was 10.5 µM. In addition, the GI50 in the test with OVCAR-4 ovarian was 7 µM; with SW-620 colon it was 1.71 µM; with MALME-3M melanoma, 5.08 µM; with SK-MEL-5 melanoma it was 5.84 µM. The TGI with SF-295 CNS was found to be 4.05 µM; in the test on TK-10 renal it was 26.7 µM; with SN12C renal it was 15.9 µM; with UACC-62 melanoma, 11 µM; in the test with DU-145 prostate it was 19.6 µM; with SK-MEL-28 melanoma, 24.4 µM. Also, the TGI with OVCAR-4 ovarian is 30.7 µM; in the test on SW-620 colon it was 3.24 µM; in the test with MALME-3M melanoma, 17.3 µM; with SK-MEL-5 melanoma it was 19.9 µM.
Take `COc1cccc(C2C(C#N)=C(N)Oc3cc(N)ccc32)c1` (stereo not given): the GI50 in the test on SF-295 CNS is 0.376 µM; in the test on TK-10 renal it was 2.83 µM; with SN12C renal, 0.689 µM; in the test on UACC-62 melanoma, 0.368 µM; with DU-145 prostate, 0.71 µM; with SK-MEL-28 melanoma it was 0.663 µM. The GI50 in the test with OVCAR-4 ovarian was 5.14 µM; in the test on SW-620 colon, 0.312 µM; in the test with MALME-3M melanoma it was 0.632 µM; in the test with SK-MEL-5 melanoma, 0.396 µM. Moreover, the TGI in the test on SF-295 CNS is > 100 µM; with TK-10 renal, > 100 µM; in the test with SN12C renal, > 100 µM; with UACC-62 melanoma it was > 100 µM; with DU-145 prostate it was 34 µM; in the test on SK-MEL-28 melanoma, > 100 µM. Also, the TGI was > 100 µM in the test on OVCAR-4 ovarian, > 100 µM with SW-620 colon, > 100 µM in the test on MALME-3M melanoma and > 61.8 µM in the test with SK-MEL-5 melanoma.
Consider `CC(C)(C)[Si](C)(C)OCC1OC(n2cnc3c(NC(=O)c4ccccc4)ncnc32)CC1O` (stereo not given), for which the TGI was 44.2 µM with SF-295 CNS; > 100 µM in the test on TK-10 renal; > 100 µM in the test on SN12C renal; 40.4 µM in the test with UACC-62 melanoma; > 100 µM in the test on DU-145 prostate; 87.4 µM with SK-MEL-28 melanoma. Moreover, the TGI in the test with OVCAR-4 ovarian is 84.6 µM; with SW-620 colon, > 100 µM; in the test on MALME-3M melanoma it was 60.7 µM; in the test with SK-MEL-5 melanoma it was 33.3 µM.
Turning to `CC(=O)N1CC(Nc2ccc(OC(F)(F)F)cc2)=CC1=O`, the GI50 in the test with SF-295 CNS was 2.86 µM; in the test with TK-10 renal, 5.85 µM; with SN12C renal, 7.95 µM; in the test with UACC-62 melanoma, 0.821 µM; with DU-145 prostate it was 3.76 µM; with SK-MEL-28 melanoma, 7.29 µM. The GI50 is 4.84 µM in the test with OVCAR-4 ovarian, 0.476 µM with SW-620 colon, 61.5 µM in the test on MALME-3M melanoma and 0.377 µM with SK-MEL-5 melanoma. In addition, the TGI in the test with SF-295 CNS, in the test with TK-10 renal, with SN12C renal, in the test with UACC-62 melanoma, in the test with DU-145 prostate and in the test on SK-MEL-28 melanoma was > 100 µM in each case. For the same molecule, the TGI in the test on OVCAR-4 ovarian is > 100 µM; with SW-620 colon, > 100 µM; in the test on MALME-3M melanoma, > 100 µM; with SK-MEL-5 melanoma, 12.1 µM.
In the case of `CC(C)CCOc1ccc(-c2n[nH]c(C(F)(F)F)c2-c2cncc(C#N)c2)c(O)c1`, the GI50 in the test on SF-295 CNS was 2.33 µM; with TK-10 renal it was 3.15 µM; in the test on SN12C renal, 2.34 µM; with UACC-62 melanoma it was 1.22 µM; with DU-145 prostate, 4.18 µM; in the test with SK-MEL-28 melanoma, 2.17 µM. Also, the GI50 is 3.48 µM in the test with OVCAR-4 ovarian, 3.44 µM in the test with SW-620 colon, 1.85 µM in the test on MALME-3M melanoma and 0.943 µM in the test on SK-MEL-5 melanoma. Moreover, the TGI with SF-295 CNS was 6.7 µM; in the test with TK-10 renal, 14.1 µM; in the test with SN12C renal, 15.9 µM; with UACC-62 melanoma it was 5.38 µM; in the test with DU-145 prostate it was 46.3 µM; in the test on SK-MEL-28 melanoma, > 100 µM. Moreover, the TGI in the test with OVCAR-4 ovarian was > 100 µM; with SW-620 colon it was > 100 µM; in the test on MALME-3M melanoma, 6.56 µM; with SK-MEL-5 melanoma it was 2.57 µM.
For the molecule `CC1/C=C/C=C/C=C/C=C/C=C/C=C/C=C/C(O[C@@H]2O[C@H](C)[C@H](O)[C@@H](O)[C@@H]2N)CC(O)C(C(=O)O)C(O)CC(=O)CC(O)CC(O)CC(O)CC(=O)CCCC(=O)CC(=O)OC1C(C)CC(C)C(O)CC(=O)c1ccc(N)cc1` (stereo not given in full), the GI50 in the test with SF-295 CNS is 0.0692 µM and 0.232 µM; in the test with TK-10 renal, 0.0573 µM and 0.315 µM; with SN12C renal, 0.0586 µM and 0.174 µM; with UACC-62 melanoma, 0.0576 µM and 0.203 µM; in the test with DU-145 prostate it was 0.0687 µM and 0.335 µM; in the test on SK-MEL-28 melanoma it was 0.0622 µM and 0.189 µM. Also, the GI50 in the test with OVCAR-4 ovarian was 0.0693 µM and 0.246 µM; in the test on SW-620 colon, 0.0588 µM and 0.198 µM; with MALME-3M melanoma, 0.0543 µM and 0.177 µM; with SK-MEL-5 melanoma, 0.0522 µM and 0.212 µM. Also, the TGI in the test on SF-295 CNS is 0.155 µM and 0.605 µM; in the test on TK-10 renal, 0.104 µM and 0.983 µM; with SN12C renal it was 0.114 µM and 0.317 µM; in the test on UACC-62 melanoma, 0.109 µM and 0.458 µM; with DU-145 prostate, 0.148 µM and 1.06 µM; in the test with SK-MEL-28 melanoma it was 0.108 µM and 0.356 µM. Besides, the TGI was 0.154 µM and 0.697 µM in the test with OVCAR-4 ovarian; 0.109 µM and 0.43 µM with SW-620 colon; 0.104 µM and 0.365 µM with MALME-3M melanoma; 0.0961 µM and 0.496 µM in the test on SK-MEL-5 melanoma.
Regarding `Cc1cc2cc3cc(C)c(N(C)C)cc3nc2cc1N(C)C`, the GI50 in the test on SF-295 CNS is 1.81 µM; in the test with TK-10 renal, 4.03 µM; in the test on SN12C renal it was 3.22 µM; in the test on UACC-62 melanoma it was 2.97 µM; in the test with DU-145 prostate it was 3.46 µM; with SK-MEL-28 melanoma it was 2.8 µM. For the same molecule, the GI50 with OVCAR-4 ovarian was 2.25 µM; in the test on SW-620 colon it was 3.1 µM; with MALME-3M melanoma, 3.53 µM; in the test on SK-MEL-5 melanoma, 1.73 µM. For the same molecule, the TGI in the test on SF-295 CNS turned out to be 8.52 µM; in the test with TK-10 renal, 31.2 µM; in the test on SN12C renal, 29.3 µM; in the test on UACC-62 melanoma, 17.2 µM; in the test on DU-145 prostate, 25.8 µM; in the test on SK-MEL-28 melanoma it was 9.55 µM. Moreover, the TGI was 19.5 µM with OVCAR-4 ovarian, 26.6 µM with SW-620 colon, 19 µM with MALME-3M melanoma and 4.71 µM with SK-MEL-5 melanoma.
